“And” between values parts separate entries of the source, which are not always exact repeats. Equal entries are not always repeated. Where two headings read alike, the source gives them in different places.
Legend:
BMDCs = assay: LDH release (lytic cell death, pyroptosis) from LPS-primed BMDCs; assay type: cell-based, mouse; conditions: for Average (% positive control): LDH release; for cytotoxicity at 50 µM / cytotoxicity at 18.75 µM / cytotoxicity at 37.5 µM / cytotoxicity at 75 µM / cytotoxicity at 25 µM: Mus musculus, BMDC
Method: (§1) This was tested in cell culture in several different in vitro assays classically used to investigate inflammasome activation. These include measuring inflammasome-dependent lytic cell death (pyroptosis) by detecting release of the cytosolic enzyme lactate dehydrogenase (LDH) using a commercial colorimetric assay and release of proinflammatory cytokines like IL-1β by enzyme-linked immunosorbent assay (ELISA), analyzing cleavage and activation of caspase-1 and IL-1β by immunoblotting and immunofluorescence imaging of ASC speck formation. Lytic cell death was determined via LDH release. Assay results for compounds are illustrated in the Tables below, wherein the concentration of the compounds tested had been 50 μM or as indicated in the table, and the concentration of the known activators has been tested with 5 μM of nigericin, 100 μM of each R837 and CL097. For classification of the activity of a given molecule, release of IL-1β was quantified as % of IL-1% of a respective control activator used for the experiment (highlighted in tables with bold letters). The compounds listes in Table 1 were classified into 4 groups depending on their ability to induce the NLRP3 inflammasome activation, assessed by % IL-1β release as compared to the positive control.
(§2) Mouse bone marrow-derived dendritic cells (BMDCs) were isolated from femurs and tibias previously described (Gross, Olaf, 2012, “Measuring the inflammasome”, Methods in molecular biology, Clifton, N.J., 844, pp. 199-222.). In brief, tibias and femurs were carefully removed and put to sterile 70% ethanol for 1 minute. Using a 22-G needle attached to a 20 ml-syringe filled with sterile flushing medium, the bone marrow was pressed through the mesh of a […] cell strainer. The cells were spun down by centrifugation at 400×g, 4° C. for 5 minutes and red blood cells lysed by resuspension and incubation for 5 minutes at room temperature in RBC lysis buffer. 9 ml of flushing medium were added and cells were again spun down by centrifugation at 400×g, 4° C. for 5 minutes. Cells were then resuspended in BMDC medium (RPMI, 10% fetal bovine serum, 1% penicillin-streptomycin100 U/ml, 20 ng/ml recombinant murine GM-CSF), counted and plated at a density of 0.5×10^6 cells ml^−1 in 10 ml medium and incubated at 37° C., 5% CO2 in a humidified incubator. After 2 days, 10 ml of fresh medium were added to the cells and after 4 days, the medium was fully exchanged to 20 ml of fresh medium. The cells were allowed to differentiate for 6 to 8 days before usage.
(§3) For canonical inflammasome activation BMDCs after 7-9 days of differentiation were harvested and counted with a Neubauer Chamber (Hecht Assistant) and the concentration was set to 1 Mio cells ml^−1. 100 μl cell suspension per well were seeded in 96-well plates. The cells were primed with 50 ng ml^−1 E. coli K12 ultra-pure LPS for 3 hours and subsequently treated with canonical inflammasome activators or experimental compounds for 3 hours if not indicated differently (incubation time FIG. 4D, 5, 7, 8, 11, 13-18: 3 h, FIG. 12: 4 h). Concentrations of the stimuli were as follows if not indicated differently: 5 μM nigericin, 100 μM imiquimod (also known as R837), 100 μM CL097, 100 μM R848, […] poly(dA:dT), 300 μg ml^−1 MSU. If an inhibitor was used before stimuli treatment, the inhibitor was added after 2.5 hours of priming and it was incubated for 30 minutes before inflammasome activation. Inhibitors were used as follows: 3 μM MCC950, 45 mM KCl, 30 μM ebselen (2-Phenyl-1,2-benzoselenazol-3-one), 5 μM cytochalasin D (see FIGS. 8, 11, 12 and 17).
(§4) All inflammasome stimulations were performed in three technical replicates for each condition. […]

NLRP3 inflammasome = molecular target: T1, NLRP3 inflammasome (Mus musculus, UniProt Q8R4B8); assay: IL-1β release from LPS-primed BMDCs (ELISA) as readout of NLRP3 inflammasome activation; assay type: cell-based
T1 construct: endogenous in cells; host or cells: primary mouse bone marrow-derived dendritic cells (BMDCs), LPS-primed
T1 sequence (Q8R4B8 whole entry): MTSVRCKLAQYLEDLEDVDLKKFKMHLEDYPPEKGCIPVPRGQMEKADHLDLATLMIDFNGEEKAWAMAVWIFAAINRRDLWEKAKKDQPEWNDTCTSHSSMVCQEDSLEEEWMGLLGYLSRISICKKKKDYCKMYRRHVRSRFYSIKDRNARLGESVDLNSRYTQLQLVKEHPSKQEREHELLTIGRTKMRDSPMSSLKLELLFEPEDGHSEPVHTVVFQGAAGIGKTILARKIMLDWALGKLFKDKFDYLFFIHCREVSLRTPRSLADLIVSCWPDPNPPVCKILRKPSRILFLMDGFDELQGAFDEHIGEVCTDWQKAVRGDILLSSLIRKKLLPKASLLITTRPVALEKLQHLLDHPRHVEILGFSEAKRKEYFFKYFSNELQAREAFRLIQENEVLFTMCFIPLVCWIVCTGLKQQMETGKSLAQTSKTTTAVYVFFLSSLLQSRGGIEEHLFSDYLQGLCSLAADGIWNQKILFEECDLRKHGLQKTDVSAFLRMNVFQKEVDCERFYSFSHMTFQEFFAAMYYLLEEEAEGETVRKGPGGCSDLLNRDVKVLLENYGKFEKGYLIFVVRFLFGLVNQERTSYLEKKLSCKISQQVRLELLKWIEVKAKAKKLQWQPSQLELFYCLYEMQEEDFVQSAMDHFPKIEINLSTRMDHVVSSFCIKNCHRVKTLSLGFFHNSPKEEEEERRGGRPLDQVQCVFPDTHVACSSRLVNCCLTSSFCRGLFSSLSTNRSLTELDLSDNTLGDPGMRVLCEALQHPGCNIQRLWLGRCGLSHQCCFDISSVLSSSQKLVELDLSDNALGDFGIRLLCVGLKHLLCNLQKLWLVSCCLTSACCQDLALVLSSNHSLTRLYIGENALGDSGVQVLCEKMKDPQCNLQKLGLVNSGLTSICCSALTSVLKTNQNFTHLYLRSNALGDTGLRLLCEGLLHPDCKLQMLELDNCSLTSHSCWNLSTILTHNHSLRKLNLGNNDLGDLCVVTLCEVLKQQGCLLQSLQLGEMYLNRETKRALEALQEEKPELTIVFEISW
Method: as §1, §2, §3, §4

[1] = compound 50 μM, positive control nigericin 5 μM
[2] = compound 50 μM, LPS-primed BMDCs, read-out: Average LDH release (% of max.)
[3] = single replicates, compound 50 μM, LPS-primed BMDCs, read-out: LDH release (% of max.)
[4] = IL-1β release, compound 50 μM, positive control nigericin 5 μM
[5] = compound 50 μM, LPS-primed BMDCs
[6] = single replicates, compound 50 μM, LPS-primed BMDCs

Compound	Average (% positive control) (NLRP3 inflammasome; [4])	Average IL-1β (NLRP3 inflammasome; [5]) [ng/mL]	Average (% positive control) (BMDCs; [1])	cytotoxicity at 50 µM (BMDCs; [2]) [%]	cytotoxicity at 50 µM (BMDCs; [3]) [%]	IL-1β (NLRP3 inflammasome; [6])	other results
O=C(Nc1ccccc1Cl)Nc1ccc([N+](=O)[O-])cc1Cl [A.C2, 3-(2-chloro-4-nitrophen-yl)-1-(2-chlorophenyl)-urea]	–	–	–	–	–	–	cytotoxicity at 18.75 µM (BMDCs; section 1.4, 18.75 μM, read-out: Average LDH release (% of max.)): 17.8%; cytotoxicity at 37.5 µM (BMDCs; section 1.4, 37.5 μM, read-out: Average LDH release (% of max.)): 45.7%; cytotoxicity at 75 µM (BMDCs; section 1.4, 75 μM, read-out: Average LDH release (% of max.)): 75.8%; cytotoxicity at 18.75 µM (BMDCs; section 1.4, single replicates, 18.75 μM, read-out: LDH release (% of max.)): 18.4%; cytotoxicity at 37.5 µM (BMDCs; section 1.4, single replicates, 37.5 μM, read-out: LDH release (% of max.)): 46.6%; cytotoxicity at 75 µM (BMDCs; section 1.4, single replicates, 75 μM, read-out: LDH release (% of max.)): 77.1%; Average (% positive control) (BMDCs; section 1.4, 18.75 μM, positive control EN22 18.75 μM): 24.912 % positive control; Average (% positive control) (BMDCs; section 1.4, 37.5 μM, positive control EN22 18.75 μM): 64.016 % positive control; Average (% positive control) (BMDCs; section 1.4, 75 μM, positive control EN22 18.75 μM): 106.244 % positive control; Average IL-1β (NLRP3 inflammasome; 18.75 μM): 0.118 ng/mL; IL-1β (NLRP3 inflammasome; 18.75 μM, individual replicate values): 0.128 ng/mL and 0.116 ng/mL and 0.111 ng/mL; Average IL-1β (NLRP3 inflammasome; 37.5 μM): 0.361 ng/mL; IL-1β (NLRP3 inflammasome; 37.5 μM, individual replicate values): 0.377 ng/ml and 0.353 ng/ml (2×); Average IL-1β (NLRP3 inflammasome; 75 μM): 0.525 ng/mL; IL-1β (NLRP3 inflammasome; 75 μM, individual replicate values): 0.459 ng/mL and 0.546 ng/mL and 0.571 ng/mL; Average (% positive control) (NLRP3 inflammasome; IL-1β, 18.75 μM, positive control EN22 18.75 μM): 1.870 % positive control; Average (% positive control) (NLRP3 inflammasome; IL-1β, 37.5 μM, positive control EN22 18.75 μM): 5.712 % positive control; Average (% positive control) (NLRP3 inflammasome; IL-1β, 75 μM, positive control EN22 18.75 μM): 8.308 % positive control
O=C(Nc1cc(Cl)cc(Cl)c1)Nc1ccc([N+](=O)[O-])cc1Cl [AH1, 1-(2-chloro-4-nitrophenyl)-3-(3,5-dichlorophenyl) urea]	–	–	–	–	–	–	Average (% positive control) (BMDCs; 25 μM, positive control EN22 10 μM): 53.499 % positive control; Average (% positive control) (BMDCs; 50 μM, positive control EN22 10 μM): 74.390 % positive control; Average (% positive control) (BMDCs; 75 μM, positive control EN22 10 μM): 78.340 % positive control; cytotoxicity at 25 µM (BMDCs; 25 μM, AH series table, read-out: Average LDH release (% of max.)): 41.1%; cytotoxicity at 25 µM (BMDCs; 25 μM, individual replicate values, AH series table, read-out: LDH release (% of max.)): 42.1%; cytotoxicity at 50 µM (BMDCs; 50 μM, AH series table, read-out: Average LDH release (% of max.)): 57.1%; cytotoxicity at 50 µM (BMDCs; 50 μM, individual replicate values, AH series table, read-out: LDH release (% of max.)): 55.7%; cytotoxicity at 75 µM (BMDCs; 75 μM, individual replicate values, read-out: LDH release (% of max.)): 60.7%; cytotoxicity at 75 µM (BMDCs; 75 μM, read-out: Average LDH release (% of max.)): 60.2%; Average IL-1β (NLRP3 inflammasome; 25 μM, AH series table): 1.177 ng/mL; IL-1β (NLRP3 inflammasome; 25 μM, individual replicate values, AH series table): 1.140 ng/mL and 1.156 ng/mL and 1.234 ng/mL; Average IL-1β (NLRP3 inflammasome; 50 μM, AH series table): 1.578 ng/mL; IL-1β (NLRP3 inflammasome; 50 μM, individual replicate values, AH series table): 1.533 ng/mL and 1.609 ng/mL and 1.592 ng/mL; Average IL-1β (NLRP3 inflammasome; 75 μM, AH series table): 1.533 ng/mL; IL-1β (NLRP3 inflammasome; 75 μM, individual replicate values, AH series table): 1.619 ng/mL and 1.382 ng/mL and 1.598 ng/mL; Average (% positive control) (NLRP3 inflammasome; IL-1β, 25 μM, positive control EN22 10 μM): 11.766 % positive control; Average (% positive control) (NLRP3 inflammasome; IL-1β, 50 μM, positive control EN22 10 μM): 15.776 % positive control; Average (% positive control) (NLRP3 inflammasome; IL-1β, 75 μM, positive control EN22 10 μM): 15.328 % positive control
O=C(Nc1ccccc1)Nc1cccc(NC(=O)C2CC2)c1 [L01.084, N-{3-[(phenylcarbamo-yl)amino]phenyl}cyclo-propanecarboxamide]	1.362	0.098	8.054	5.89	6	0.083 ng/mL and 0.111 ng/mL and 0.099 ng/mL	–
O=C(NCc1nc(-c2cccnc2)no1)Nc1cccc2cnccc12 [L01.062, 1-(isoquinolin-5-yl)-3-{[3-(pyridin-3-yl)-1,2,4-oxadiazol-5-yl]-methyl}urea]	1.141	0.082	18.117	13.3	13.4	0.084 ng/mL and 0.087 ng/mL and 0.074 ng/mL	–
COc1cccc(C)c1NC(=O)NC(c1nc(-c2cccnc2)no1)C(C)C (stereo not drawn) [L01.056, 1-(2-methoxy-6-methyl-phenyl)-3-{2-methyl-1-[3-(pyridin-3-yl)-1,2,4-oxadiazol-5-yl]propyl}-urea]	0.905	0.065	13.256	9.7	9.34	0.060 ng/mL and 0.073 ng/mL and 0.062 ng/mL	–

More lines, main results first:

Average (% positive control) (NLRP3 inflammasome; [4])	Average IL-1β (NLRP3 inflammasome; [5]) [ng/mL]	Compound	Average (% positive control) (BMDCs; [1])	cytotoxicity at 50 µM (BMDCs; [2]) [%]	cytotoxicity at 50 µM (BMDCs; [3]) [%]	IL-1β (NLRP3 inflammasome; [6])	other results
1.624	0.116	O=C(Nc1ccccc1)Nc1cccc(NC(=O)C2CCCC2)c1 [L01.103, N-{3-[(phenylcarbamo-yl)amino]phenyl}cyclo-pentanecarboxamide]	10.791	7.89	6.58	0.060 ng/mL and 0.049 ng/mL and 0.240 ng/mL	–
0.998	0.072	CC(C)CC(NC(=O)Nc1cccc(N2CCC(C)CC2)c1)c1nc(-c2nnc[nH]2)no1 (stereo not drawn) [L01.093, 3-{3-methyl-1-[3-(4H-1,2,4-triazol-3-yl)-1,2,4-oxadiazol-5-yl]butyl}-1-[3-(4-methylpiperidin-1-yl)phenyl]urea]	11.139	8.15	6.68	0.056 ng/mL and 0.050 ng/mL and 0.108 ng/mL	–
2.800	0.201	O=C(Nc1ccccc1)Nc1cccc(OC(F)F)c1 [L01.120, 3-[3-(difluoromethoxy)-phenyl]-1-phenylurea]	33.449	24.5	25	0.207 ng/mL and 0.200 ng/mL and 0.196 ng/mL	–
0.920	0.066	CNC(=O)NCc1cccc(NC(=O)Nc2ccccc2)c1 [L01.132, 3-(3-{[(methylcarbamo-yl)amino]methyl}phen-yl)-1-phenylurea]	8.791	6.43	6.46	0.062 ng/mL and 0.066 ng/mL and 0.069 ng/mL	–
